Results published in patent US9573961B2, “Inhibitors of the renal outer medullary potassium channel” (Merck Sharp & Dohme Corp., priority 2012, dated 2017).
Where two headings read alike, the source gives them in different places.

What was measured:
[1] = molecular target: hROMK (hKir1.1) (Homo sapiens (Human), UniProt P48048); assay: Thallium Flux Assay (ROMK channel functional thallium flux, FLIPR-Tetra); type: cell-based; details: HEK293 cells stably expressing hROMK (hKir1.1); read-out: Thallium Flux IC50
Chain of hROMK (hKir1.1) (P48048 whole entry): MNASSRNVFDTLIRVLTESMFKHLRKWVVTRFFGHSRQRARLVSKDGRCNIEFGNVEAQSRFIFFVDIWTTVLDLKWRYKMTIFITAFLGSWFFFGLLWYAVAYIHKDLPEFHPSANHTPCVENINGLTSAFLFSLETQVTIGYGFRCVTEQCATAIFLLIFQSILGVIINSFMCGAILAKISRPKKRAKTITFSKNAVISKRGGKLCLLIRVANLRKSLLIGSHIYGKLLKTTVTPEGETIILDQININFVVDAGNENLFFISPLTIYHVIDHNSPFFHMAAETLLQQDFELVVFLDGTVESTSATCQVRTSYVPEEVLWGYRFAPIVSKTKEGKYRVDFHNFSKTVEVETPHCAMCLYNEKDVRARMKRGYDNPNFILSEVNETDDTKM
Procedure: Cell Culture Conditions—HEK293 cells stably expressing hROMK (hKir1.1) were grown at 37° C. in a 10% CO2 humidified incubator in complete growth media: Dulbecco's Modified Eagle Medium supplemented with non-essential amino acids, Penicillin/Streptomycin/Glutamine, G418 and FBS. At >80% confluency, aspirate the media from the flask and rinse with 10 mL Calcium/Magnesium-free PBS. […] To dislodge the cell, gently bang the side of the flask with your hand. Triturate the cells completely and then transfer the cells to 25 mL complete media. Centrifuge at 1,500 rpm for 6 min followed by resuspension in complete growth media and determine cell concentration. […] Under ideal growth conditions and appropriate tissue culture practices, this cell line is stable for 40-45 passages.
FluxOR Kit Components (Invitrogen F10017) • FluxOR™ Reagent (Component A) • FluxOR™ Assay Buffer (Component B)—10× Concentrate • PowerLoad™ Concentrate (Component C)—100× Concentrate • Probenecid (Component D)—Lyophilized sample is kept at −20° C. Water soluble, 100× after solubilization in 1 mL water. […] Store at 4° C. • Thallium sulfate (Tl2SO4) Concentrate (Component G)—50 mM in water. Store at 4° C. • DMSO (dimethyl sulfoxide, Component H)—1 mL (100%)
Can be stored at room temperature • Stimulant Buffer (prepared at 5× final concentration in 1× FluxOR™ Chloride-Free Buffer): 7.5 mM Thallium sulfate and 0.75 mM Potassium sulfate (to give a final assay concentration of 3 mM Thallium/0.3 mM Potassium). Store at 4° C. when not in use. If kept sterile, this solution is good for months.
Assay Protocol—The ROMK channel functional thallium flux assay is performed in 384 wells, using the FLIPR-Tetra instrument. HEK-hKir1.1 cells are seeded in Poly-D-Lysine microplates and kept in a 37° C.-10% CO2 incubator overnight. On the day of the experiment, the growth media is replaced with the FluxOR™ reagent loading buffer and incubated, protected from light, at ambient temperature (23-25° C.) for 90 min. The loading buffer is replaced with assay buffer±test compound followed by 30 min incubation at ambient temperature, where the Thallium/Potassium stimulant is added to the microplate.
Step Protocol • 1. Seed HEK-hKir1.1 cells (50 μl at 20,000 cells/well) in 384-well PDL coated Microplates • 2. Allow cells to adhere overnight in humidified 37° C./10% CO2 incubator • 3. Completely remove cell growth media from microplate and replace with 25 μl loading buffer • 4. Incubate Microplate at room temperature, protected form light, for 90 min • 5. Remove loading buffer and replace with 25 μl 1× Assay Buffer±test compound. • 6. Incubate microplate at room temperature, protected from light, for 30 min • 7. […] Excitation=400 nm, Emission=460 & 580 nm. Collect data for ˜10 min.
Data Calculation—The fluorescence intensity of wells containing 3 μM of a standard control ROMK inhibitor of the present invention is used to define the ROMK-sensitive component of thallium flux. Fluorescence in the presence of test compounds is normalized to control values to provide % fluorescence change.

[2] = molecular target: Kir1.1 (ROMK1) (Homo sapiens (Human), UniProt P48048); assay: Electrophysiology Assay (whole cell voltage clamp, IonWorks Quattro); type: cell-based; details: block during voltage step to 0 mV
Chain of Kir1.1 (ROMK1) (P48048 whole entry): as above
Procedure: Chinese hamster ovary cells stably expressing Kir1.1 channels were maintained in T-75 flasks in cell culture media in a humidified 10% CO2 incubator at 37° C. Prior to an experiment, Kir1.1 expression was induced by overnight incubation with 1 mM sodium butyrate. […] After centrifugation, the cell pellet was resuspended in approximately 4.0 mL of bath solution and placed in the IonWorks instrument. The intracellular solution consisted of (in mM): 80 K gluconate, 40 KCl, 20 KF, 3.2 MgCl2, 3 EGTA, 5 Hepes, pH 7.4. Electrical access to the cytoplasm was achieved by perforation in 0.13 mg/mL amphotericin B for 4 min. […] Voltage protocols and current recordings were performed using the IonWorks HT software/hardware system. Currents were sampled at 1 kHz. No correction for liquid junction potentials was used. The test pulse, consisting of a 100 ms step to 0 mV from a holding potential of −70 mV, followed by a 100 ms voltage ramp from −70 mV to +70 mV, was applied before and after a 6 min compound incubation period. Test compounds were prepared by diluting DMSO stock solutions into the bath solution at 3× the final concentration and placed in the instrument in 96-well polypropylene plates. Current amplitudes were measured using the IonWorks software.

[3] = Chinese hamster ovary cells stably expressing Kir1.1, read-out: Electrophysiology IC50
[4] = Electrophysiology IC50, Chinese hamster ovary cells stably expressing Kir1.1

## Cc1c([C@@H]2CN3CCN(C(=O)Cc4ccc(-n5cnnn5)cc4)C[C@H]3CO2)ccc2nonc12 [Example 76, (3R,9aS)-3-(4-methyl-2,1,3-benzoxadiazol-5-yl)-8-{[4-(1H-tetrazol-1-yl)phenyl]acetyl}octahydropyrazino[2,1-c][1,4]oxazine]
[1]
  IC50: 220 nM
[2]; [3]
  IC50: 220 nM

## Cc1c([C@H]2CN3CCN(C(=O)Cc4ccc(-n5cnnn5)cc4)C[C@H]3CO2)csc1C#N [Example 40, 3-methyl-4-[(3S,9aS)-8-{[4-(1H-tetrazol-1-yl)phenyl]acetyl}octahydropyrazino[2,1-c][1,4]oxazin-3-yl]thiophene-2-carbonitrile]
[1]
  IC50: 90 nM
[2]; [4]
  IC50: 80 nM

## Cc1c(C#N)cccc1[C@@H]1CN2CCN(C(=O)Cc3ccc(-n4cnnn4)cc3)C[C@H]2CO1 [Example 42, 2-methyl-3-[(3R,9aS)-8-{[4-(1H-tetrazol-1-yl)phenyl]acetyl}octahydropyrazino[2,1-c][1,4]oxazin-3-yl]benzonitrile]
[1]
  IC50: 90 nM
[2]; [3]
  IC50: 130 nM

## Cc1c([C@@H]2CN3CCN(C(=O)Cc4ccc(-n5cnnn5)cc4)C[C@H]3CO2)csc1C#N [Example 39, 3-methyl-4-[(3R,9aS)-8-{[4-(1H-tetrazol-1-yl)phenyl]acetyl}octahydropyrazino[2,1-c][1,4]oxazin-3-yl]thiophene-2-carbonitrile]
[1]
  IC50: 60 nM
[2]; [4]
  IC50: 60 nM

## COc1cc([C@H]2CN3CCN(C(=O)Cc4ccc(-n5cnnn5)cc4)C[C@@H]3CO2)ccc1C#N [Example 18, 2-methoxy-4-[(3S,9aR)-8-{[4-(1H-tetrazol-1-yl)phenyl]acetyl}octahydropyrazino[2,1-c][1,4]oxazin-3-yl]benzonitrile]
[1]
  IC50: 250 nM
[2]; [4]
  IC50: 110 nM

## Cc1c([C@@H]2CN3CCN(C(=O)Cc4ccc(-n5cnnn5)cc4Cl)C[C@H]3CO2)ccc(F)c1C#N [Example 70, 3-[(3R,9aS)-8-{[2-chloro-4-(1H-tetrazol-1-yl)phenyl]acetyl}octahydropyrazino[2,1-c][1,4]oxazin-3-yl]-6-fluoro-2-methylbenzonitrile]
[1]
  IC50: 250 nM
[2]; [4]
  IC50: 160 nM

## Cc1c([C@@H]2CN3CCN(C(=O)C4CCCc5cc(-n6cnnn6)ccc54)C[C@H]3CO2)csc1C#N (single isomer, unassigned) [Example 96]
[1]
  IC50: 460 nM
[2]; [3]
  IC50: 190 nM

## Cc1c([C@@H]2CN3CCN(C(=O)Cc4c(F)cc(-n5cnnn5)cc4F)C[C@@H]3CO2)ccc2c1COC2=O [Example 79, 5-[(3R,9aR)-8-{[2,6-difluoro-4-(1H-tetrazol-1-yl)phenyl]acetyl}octahydropyrazino[2,1-c][1,4]oxazin-3-yl]-4-methyl-2-benzofuran-1(3H)-one]
[1]
  IC50: 260 nM
[2]; [3]
  IC50: 190 nM

## O=C1OCc2c1ccc([C@@H]1CN3CCN(C(=O)Cc4ccc(-n5cnnn5)cc4)C[C@H]3CO1)c2Cl [Example 20, 4-chloro-5-[(3R,9aS)-8-{[4-(1H-tetrazol-1-yl)phenyl]acetyl}octahydropyrazino[2,1-c][1,4]oxazin-3-yl]-2-benzofuran-1(3H)-one]
[1]
  IC50: 580 nM
[2]; [4]
  IC50: 60 nM

## Cc1c([C@@H]2CN3CCN(C(=O)Cc4ccc(-n5cnnn5)cc4C#N)C[C@H]3CO2)ccc(F)c1C#N [Example 67, 3-[(3R,9aS)-8-{[2-cyano-4-(1H-tetrazol-1-yl)phenyl]acetyl}octahydropyrazino[2,1-c][1,4]oxazin-3-yl]-6-fluoro-2-methylbenzonitrile]
[1]
  IC50: 130 nM
[2]; [4]
  IC50: 170 nM

## Cc1c([C@@H]2CN3CCN(C(=O)C4CCc5cc(-n6cnnn6)ccc54)C[C@H]3CO2)csc1C#N (single isomer, unassigned) [Example 82]
[1]
  IC50: 330 nM
[2]; [3]
  IC50: 110 nM

## COc1ccc([C@@H]2CN3CCN(C(=O)Cc4ccc(-n5cnnn5)cc4)C[C@H]3CO2)c(F)c1C#N [Example 25, 2-fluoro-6-methoxy-3-[(3R,9aS)-8-{[4-(1H-tetrazol-1-yl)phenyl]acetyl}octahydropyrazino[2,1-c][1,4]oxazin-3-yl]benzonitrile]
[1]
  IC50: 150 nM
[2]; [3]
  IC50: 200 nM
